Assays:
[1] = tested on: GLXMAW (Soybean, Williams); test: Preemergence herbicidal evaluation; assay type: in vivo, Glycine max, (L.) Merr. cv Williams; details: rated 4-5 weeks after treatment
Procedure, shortened: (§1)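 Seeds were planted in potting soil in cups, then sprayed preemergence with the test compound in aqueous acetone at about 0.0156 to 0.500 kg per hectare. Cups were kept under greenhouse conditions and visually rated 4–5 weeks after treatment on a 0–9 scale against an untreated control.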

[2] = tested on: CHEAL (Lambsquarters, Common); test: Postemergence herbicidal evaluation; assay type: in vivo, Chenopodium album; details: postemergence
Procedure, shortened: (§2)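 Each compound, dispersed in an acetone/water mix (50/50) carrying 0.5% TWEEN 20, is nozzle-sprayed at 40 psi on approximately two-week-old seedlings at about 0.0156–0.500 kg/ha. Plants are assessed 4–5 weeks afterward on a 0–9 scale relative to control; duplicate tests are averaged.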

ECHCG (Barnyardgrass) [3] = test: Preemergence herbicidal evaluation; assay type: in vivo, Echinochloa crus-galli; details: rated 4-5 weeks after treatment
Procedure, shortened: as §1

ABUTH (Velvetleaf) [4] = test: Postemergence herbicidal evaluation; assay type: in vivo, Abutilon theophrasti; details: postemergence
Procedure, shortened: as §2

ZEAMX (Corn, Field) [5] = test: Postemergence herbicidal evaluation; assay type: in vivo, Zea mays; details: postemergence
Procedure, shortened: as §2

SETVI (Foxtail, Green) = test: Postemergence herbicidal evaluation; assay type: in vivo, Setaria viridis; details: postemergence
Procedure, shortened: as §2

CYPSE (Flatsedge) = test: Postemergence weed control under flooded paddy conditions; assay type: in vivo, Cyperus serotinus; details: postemergence weeds, rated 3 to 4 weeks after treatment
Procedure, shortened: (§3)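 Weeds 3 to 5 cm tall and rice seedlings at the 1.5 to 2.5 leaf stage were flooded, with water held 1.5 to 3 cm above the soil. Compounds in 50/50 v/v aqueous/acetone went into the flood water at about 0.0313 to 0.500 kg/ha. Visual 0-9 ratings versus control were made 3 to 4 weeks later.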

ZEAMX (Corn, Field) [6] = test: Preemergence herbicidal evaluation; assay type: in vivo, Zea mays; details: rated 4-5 weeks after treatment
Procedure, shortened: as §1

[7] = tested on: IPOHE (Morningglory, Ivyleaf); test: Preemergence herbicidal evaluation; assay type: in vivo, Ipomoea hederacea; details: rated 4-5 weeks after treatment
Procedure, shortened: as §1

[8] = tested on: IPOHE (Morningglory, Ivyleaf); test: Postemergence herbicidal evaluation; assay type: in vivo, Ipomoea hederacea; details: postemergence
Procedure, shortened: as §2

CYPIR (Rice Flatsedge) = test: Postemergence weed control under flooded paddy conditions; assay type: in vivo, Cyperus iria; details: postemergence weeds, rated 3 to 4 weeks after treatment
Procedure, shortened: as §3

CASOB (Sicklepod) = test: Preemergence herbicidal evaluation; assay type: in vivo, Cassia obtusifolia; details: rated 4-5 weeks after treatment
Procedure, shortened: as §1

[9] = tested on: TRZAWR (Wheat, Winter, cv Riband); test: Preemergence herbicidal evaluation; assay type: in vivo, Triticum aestivum; details: rated 4-5 weeks after treatment
Procedure, shortened: as §1

ECHCG (Barnyardgrass) [10] = test: Postemergence herbicidal evaluation; assay type: in vivo, Echinochloa crus-galli; details: postemergence
Procedure, shortened: as §2

ABUTH (Velvetleaf) [11] = test: Preemergence herbicidal evaluation; assay type: in vivo, Abutilon theophrasti; details: rated 4-5 weeks after treatment
Procedure, shortened: as §1

[12] = tested on: CHEAL (Lambsquarters, Common); test: Preemergence herbicidal evaluation; assay type: in vivo, Chenopodium album; details: rated 4-5 weeks after treatment
Procedure, shortened: as §1

ORYSAT (Rice, Tebonnet) = test: Postemergence herbicidal evaluation; assay type: in vivo, Oryza sativa, (L.) Tebonnet; details: postemergence
Procedure, shortened: as §2

CCOC(=O)[C@H](C)N1C(=O)CSC1=Nc1cc(-n2c(=O)cc(C(F)(F)F)n(C)c2=O)c(F)cc1Cl [Compound 76, Ethyl 2-{{2-chloro-5-[3,6-dihydro-3-methyl-2,6-dioxo-4-(trifluoromethyl)-1(2H)-pyrimidinyl]-4-fluorophenyl}imino}-α-methyl-4-oxo-3-thiazolidineacetate, L-]
1.0: Preemergence herbicidal rating ECHCG (ECHCG (Barnyardgrass) [3]; rate 0.0625 kg/ha) | SETVI herbicidal rating (SETVI (Foxtail, Green); rate 0.0158 kg/ha) | Preemergence herbicidal rating ZEAMX (ZEAMX (Corn, Field) [6]; rate 0.0313 kg/ha) | Preemergence herbicidal rating CASOB (CASOB (Sicklepod); rate 0.2500 kg/ha) | ECHCG herbicidal rating (ECHCG (Barnyardgrass) [10]; rate 0.0158 kg/ha) | ECHCG herbicidal rating (ECHCG (Barnyardgrass) [10]; rate 0.0315 kg/ha) | Preemergence herbicidal rating ABUTH (ABUTH (Velvetleaf) [11]; rate 0.0156 kg/ha) | Preemergence herbicidal rating ABUTH (ABUTH (Velvetleaf) [11]; rate 0.0313 kg/ha)
4.0: ORYSAT herbicidal rating (ORYSAT (Rice, Tebonnet); rate 0.0315 kg/ha)
2.0: SETVI herbicidal rating (SETVI (Foxtail, Green); rate 0.0315 kg/ha) | Herbicidal rating CYPSE (CYPSE (Flatsedge); Rate 0.0313 kg/ha) | Herbicidal rating CYPSE (CYPSE (Flatsedge); Rate 0.0625 kg/ha) | Herbicidal rating CYPSE (CYPSE (Flatsedge); Rate 0.1250 kg/ha) | ECHCG herbicidal rating (ECHCG (Barnyardgrass) [10]; rate 0.0630 kg/ha)
6.0: Preemergence herbicidal rating GLXMAW ([1]; rate 0.1250 kg/ha) | ZEAMX herbicidal rating (ZEAMX (Corn, Field) [5]; rate 0.0315 kg/ha) | Herbicidal rating CYPIR (CYPIR (Rice Flatsedge); Rate 0.2500 kg/ha)
0.0: Preemergence herbicidal rating GLXMAW ([1]; rate 0.0156 kg/ha) | Preemergence herbicidal rating GLXMAW ([1]; rate 0.0313 kg/ha) | Preemergence herbicidal rating ECHCG (ECHCG (Barnyardgrass) [3]; rate 0.0156 kg/ha) | Preemergence herbicidal rating ECHCG (ECHCG (Barnyardgrass) [3]; rate 0.0313 kg/ha) | Preemergence herbicidal rating ZEAMX (ZEAMX (Corn, Field) [6]; rate 0.0156 kg/ha) | Preemergence herbicidal rating IPOHE ([7]; rate 0.0156 kg/ha) | Preemergence herbicidal rating IPOHE ([7]; rate 0.0313 kg/ha) | Preemergence herbicidal rating IPOHE ([7]; rate 0.0625 kg/ha) | Herbicidal rating CYPIR (CYPIR (Rice Flatsedge); Rate 0.0313 kg/ha) | Herbicidal rating CYPIR (CYPIR (Rice Flatsedge); Rate 0.0625 kg/ha) | Herbicidal rating CYPIR (CYPIR (Rice Flatsedge); Rate 0.1250 kg/ha) | Preemergence herbicidal rating CASOB (CASOB (Sicklepod); rate 0.0156 kg/ha) | Preemergence herbicidal rating CASOB (CASOB (Sicklepod); rate 0.0313 kg/ha) | Preemergence herbicidal rating CASOB (CASOB (Sicklepod); rate 0.0625 kg/ha) | Preemergence herbicidal rating CASOB (CASOB (Sicklepod); rate 0.1250 kg/ha) | Preemergence herbicidal rating TRZAWR ([9]; rate 0.0156 kg/ha) | Preemergence herbicidal rating TRZAWR ([9]; rate 0.0313 kg/ha)
5.0: Preemergence herbicidal rating ZEAMX (ZEAMX (Corn, Field) [6]; rate 0.0625 kg/ha) | ORYSAT herbicidal rating (ORYSAT (Rice, Tebonnet); rate 0.0630 kg/ha)
4.5: ZEAMX herbicidal rating (ZEAMX (Corn, Field) [5]; rate 0.0158 kg/ha)
3.0: Preemergence herbicidal rating GLXMAW ([1]; rate 0.0625 kg/ha) | CHEAL herbicidal rating ([2]; rate 0.0158 kg/ha) | Herbicidal rating CYPSE (CYPSE (Flatsedge); Rate 0.2500 kg/ha) | Preemergence herbicidal rating TRZAWR ([9]; rate 0.0625 kg/ha) | ORYSAT herbicidal rating (ORYSAT (Rice, Tebonnet); rate 0.0158 kg/ha)
9.0: Preemergence herbicidal rating GLXMAW ([1]; rate 0.2500 kg/ha) | Preemergence herbicidal rating ECHCG (ECHCG (Barnyardgrass) [3]; rate 0.2500 kg/ha) | ABUTH herbicidal rating (ABUTH (Velvetleaf) [4]; rate 0.0158 kg/ha) | ABUTH herbicidal rating (ABUTH (Velvetleaf) [4]; rate 0.0315 kg/ha) | ABUTH herbicidal rating (ABUTH (Velvetleaf) [4]; rate 0.0630 kg/ha) | SETVI herbicidal rating (SETVI (Foxtail, Green); rate 0.0630 kg/ha) | Preemergence herbicidal rating IPOHE ([7]; rate 0.1250 kg/ha) | Preemergence herbicidal rating IPOHE ([7]; rate 0.2500 kg/ha) | IPOHE herbicidal rating ([8]; rate 0.0158 kg/ha) | IPOHE herbicidal rating ([8]; rate 0.0315 kg/ha) | IPOHE herbicidal rating ([8]; rate 0.0630 kg/ha) | Preemergence herbicidal rating TRZAWR ([9]; rate 0.2500 kg/ha) | Preemergence herbicidal rating ABUTH (ABUTH (Velvetleaf) [11]; rate 0.0625 kg/ha) | Preemergence herbicidal rating ABUTH (ABUTH (Velvetleaf) [11]; rate 0.1250 kg/ha) | Preemergence herbicidal rating ABUTH (ABUTH (Velvetleaf) [11]; rate 0.2500 kg/ha) | Preemergence herbicidal rating CHEAL ([12]; rate 0.0156 kg/ha) | Preemergence herbicidal rating CHEAL ([12]; rate 0.0313 kg/ha) | Preemergence herbicidal rating CHEAL ([12]; rate 0.0625 kg/ha) | Preemergence herbicidal rating CHEAL ([12]; rate 0.1250 kg/ha) | Preemergence herbicidal rating CHEAL ([12]; rate 0.2500 kg/ha)
7.0: CHEAL herbicidal rating ([2]; rate 0.0315 kg/ha) | CHEAL herbicidal rating ([2]; rate 0.0630 kg/ha) | Preemergence herbicidal rating ECHCG (ECHCG (Barnyardgrass) [3]; rate 0.1250 kg/ha) | ZEAMX herbicidal rating (ZEAMX (Corn, Field) [5]; rate 0.0630 kg/ha) | Preemergence herbicidal rating ZEAMX (ZEAMX (Corn, Field) [6]; rate 0.1250 kg/ha) | Preemergence herbicidal rating ZEAMX (ZEAMX (Corn, Field) [6]; rate 0.2500 kg/ha) | Preemergence herbicidal rating TRZAWR ([9]; rate 0.1250 kg/ha)
